Data published in patent US12181483B2, “Kit comprising antibody binding acrolein-protein conjugate for diagnosing nephropathy” (National Yang Ming Chiao Tung University, priority 2022, dated 2024).

What was measured:
[1] = test system: mice; assay: Acrolein-treated animal model (oral gavage) compared with vehicle control: glucose handling, renal function, kidney histology; assay type: in vivo
Method: To investigate the role of acrolein in the pathogenesis of diabetic nephropathy (DN), we compared the renal function of HFD/STZ-induced DN mice and mice treated with acrolein (2.5 mg/kg, p.o.) as shown in FIG. 2A.
We further explored the pathological abnormalities in HFD/STZ-induced DN mice and acrolein-treated mice.

[2] = test system: acrolein-modified BSA (Acr-BSA) or acrolein-modified OVA (Acr-OVA); assay: ELISA of hybridoma clones / purified Acr-PC antibody against acrolein-modified proteins; assay type: binding
Method: Monoclonal antibody preparation. Female BALB/c mice were immunized three times with the acrolein-treated ovalbumin (Acr-OVA). Spleen cells from the immunized mice were fused with NS0 murine myeloma cells and cultured in a hypoxantineyamethopterinythymidine selection medium. Culture supernatants of the hybridoma were screened using an ELISA assay, pairs of wells in the microtiter plates on which acrolein-treated BSA (Acr-BSA) was absorbed. After being incubated with 100 μl of hybridoma supernatants and washed with Tris-buffered saline (TBS) containing 0.05% Tween 20 (TBST), the wells were incubated with HRP-conjugated goat anti-mouse IgG, followed by a substrate solution containing TMB. Hybridoma cells corresponding to supernatants that were positive on Acr-BSA or Acr-OVA and negative on BSA or OVA were then cloned by limiting dilutions. After the repeated screening, five clones were obtained. […] After antibody purification from hybridoma clone #5, we confirmed the specificity and examined the antibody titer using a similar ELISA assay described above.

[3] = mice kidney, acrolein group vs control group (FIG. 2I)
[4] = mice, acrolein group vs control group (FIG. 2I)
[5] = antibody purified from hybridoma clone #5 (FIG. 3B)

C=CC=O [acrolein]
collagen fiber content and degree of fibrosis, Sirius red staining [1, 3]: increased evidently | positive immunohistochemical staining for Acr-PC in the glomeruli and renal tubules [1, 3]: significantly increased | insulin intolerance, insulin tolerance tests (ITT) ([1]; mice, acrolein 2.5 mg/kg p.o., 16 weeks, severity not as high as in HFD/STZ mice (FIGS. 2D-E)): induced insulin intolerance | blood glucose (fasting plasma glucose) ([1]; mice, acrolein 2.5 mg/kg p.o., oral gavage for 16 weeks, vs control group (FIG. 2B)): did not increase blood glucose | kidney histology, H&E staining [1, 4]: disorderly, inflammatory cell infiltration in the interstitium and vacuolar lesion in the epithelial cells | kidney histology, PAS staining [1, 4]: glomerular mesangium expansion and extracellular matrix deposition | urine albumin/creatinine ratio (UACR) ([1]; mice, oral gavage of acrolein for 12 weeks (FIG. 2F)): increased UACR, although not significantly | urine albumin/creatinine ratio (UACR) ([1]; mice, oral gavage of acrolein for 16 weeks, vs control group (FIG. 2F)): significant increase | uric acid (UA) ([1]; mice, oral gavage of acrolein for 16 weeks, vs control group (FIG. 2G)): significant increase | blood urea nitrogen (BUN) ([1]; mice, oral gavage of acrolein for 16 weeks, vs control group (FIG. 2H)): significant increase

B1: clone #5: monoclonal antibody purified from hybridoma clone #5 recognizing acrolein-protein conjugate; heavy chain SEQ ID NO:1, light chain SEQ ID NO:2 (antibody, listed as Mus musculus, V domains shown)
VH: QVQLQESGAELARPGASVRLSCKASGNIFPDHSINWVKQRTGQGLEWIGEIFHGSGNTYYNEKFKGKATLTADKSSTTVYLQLTSLTSEDSAVYFCARWVYGSSFFDVWGAGTTVTVSSAKTTPPSVYPLAP
VL: DIVLTQTPASLAVSLGQTITIFCRASESVEYYGTNLMQWYQQKPGQPPRVLIYGASNVESGVPARFSGSGSGTDFSLNILPVEEDDIAMYFCQQSRKVPWTFGGGTKLEIKRADAAPTV
antibody titer in ELISA [2, 5]: high | specificity in ELISA [2, 5]: high specificity | recognition of Acr-BSA or Acr-OVA in ELISA ([2]; hybridoma supernatant, among five clones (#1 to #5) (FIG. 3A)): most distinctive recognition of Acr-BSA or Acr-OVA
